Test results from patent US20130149415A1, “Use of manganese for enhancing the growth of L.casei in mixed cultures” (priority 2010, published 2013).
Where two headings read alike, the source gives them in different places.

Tests used:
[1] = tested on: Lactobacillus casei subsp. rhamnosus DN-116 010; settings: for paracasei ou rhamnosus count. num. Mn/count. J + 1 / Count ufc/ml at +10° C. Count. J + 1 paracasei ou rhamnosus: 543 043 + 116 010
Protocol: (§1) The population of Lactobacillus casei subsp. paracasei, was evaluated at J+3 by cell count analysis. Cell count analysis was performed by serial dilutions of the fermented medium with tryptone salt solution, and plating on Petri dishes with appropriate agar medium: MRS Agar containing 1.5 g/l of BactoOXGALL (DIFCO) for Lactobacillus casei.
(§2) Petri dishes were incubated at 37° C. during 96 H in anaerobic conditions (5% CO2).
(§3) The same experimentations as in Example 1 were performed with co-cultures of Lactobacillus casei subsp. paracasei DN-114 121 or Lactobacillus casei subsp. rhamnosus DN-116 010 with the yogurt ferment DN 543 043 described above, or the yogurt ferment DN 522 044, consisting of a strain of Streptococcus thermophilus (DN-001 143), Streptococcus thermophilus (DN-001 257) and a strain of Lactobacillus lactis (DN-111 224).
Lactobacillus casei subsp. rhamnosus DN-116 010 was inoculated at 5.8 10^7. CFU/ml.
DN 543 043 was inoculated at 2 10^6 CFU/ml for Streptococcus thermophilus DN-001 171; and 7 10^4 CFU/ml for Lactobacillus bulgaricus DN-100 182.
(§4) Fermentation was conducted at 36° C., and monitored by measuring the decrease of pH in the culture medium. Fermentation was stopped by transfering the preparation at 4° C. when a target pH of about 4.6 was reached.
(§5) The population of Lactobacillus casei subsp. paracasei was evaluated after 1 day (J+1) incubation at 10° C.

[2] = tested on: Streptococcus thermophilus and Lactobacillus bulgaricus; assay: Acidification kinetics of the co-cultures (monitoring of yogurt bacteria growth by pH decrease); assay type: cell-based
From the text: The populations of Streptococcus thermophilus and Lactobacillus bulgaricus were not evaluated by cell counts, but by the evaluation of the acidification kinetics. It is well known that Streptococcus thermophilus and Lactobacillus bulgaricus grow faster in milk than L. casei and their lactic acid productions are directly correlated to their growth. Also, in the present invention, the monitoring of acidification corresponds to the monitoring of Streptococcus thermophilus and Lactobacillus bulgaricus growth.

[3] = tested on: Lactobacillus casei subsp. paracasei DN-114 121; assay: Cell count of Lactobacillus casei subsp. paracasei co-cultured with yogurt ferments in dairy medium; assay type: cell-based; settings: for ratio count.Mn/count. J + 1 / ratio count.Mn/count. J + 3: Mn 20 mg/L vs without Mn; for Count ufc/ml at +10° C. J + 1 / Count ufc/ml at +10° C. J + 3: Mn 20 mg/L
Protocol: Medium A and medium B are inoculated with Lactobacillus casei subsp. paracasei DN-114 121 (3.80×10^7 CFU/ml), and a yogurt ferment (DN 542 142) consisting of: Streptococcus thermophilus DN-001 640 (10^6 CFU/ml), Streptococcus thermophilus DN-001 336 (2. 10^6 CFU/ml), Streptococcus thermophilus DN-001 236 (7. 10^5 CFU/ml) and Lactobacillus bulgaricus DN-100 290 (10^5 CFU/ml).
Fermentation was conducted at 36° C., and monitored by measuring the decrease of pH in the culture medium. Fermentation was stopped by transferring the preparation at 4° C. when a target pH of 4.6 was reached.
as §1, §2
Two yogurt ferments were tested in combination with Lactobacillus casei: DN 542 142 described above, and DN 543 043, consisting of a strain of Streptococcus thermophilus (DN-.001 171) and a strain of Lactobacillus bulgaricus (DN-100 182).
Lactobacillus casei subsp. paracasei DN-114 121 was inoculated at 3.8 10^7 CFU/ml.
DN 542 142 was inoculated at 10^6 CFU/ml for Streptococcus thermophilus DN-001 640; 2.10^6 CFU/ml for Streptococcus thermophilus DN-001 336; 7.10^5 CFU/ml for Streptococcus thermophilus DN-001 236, and 10^5 CFU/ml for Lactobacillus bulgaricus DN-100 290.
DN 543 043 was inoculated at 2.10^6 CFU/ml for Streptococcus thermophilus DN-001 171; and 7.10^4 CFU/ml for Lactobacillus bulgaricus DN-100 182.
Fermentation was conducted at 36° C., and monitored by measuring the decrease of pH in the culture medium. Fermentation was stopped by transferring the preparation at 4° C. when a target pH of about 4.6 (in the case of the co-culture with the yogurt ferment DN 542 142), or of about 4.45 (in the case of the co-culture with the yogurt ferment DN 543 043) was reached.
The population of Lactobacillus casei subsp. paracasei was evaluated after 1 day (J+1) and 3 days (J+3) incubation at 10° C.
as §3, §4, §5

[4] = addition of 20 mg/l of manganese, Example 1 co-cultures (DN 542 142 or DN 543 043 + DN-114 121)

monohydrate manganese sulfate [Mn]
paracasei ou rhamnosus count. num. Mn/count. J + 1 ([1]; 20 mg/L Mn vs 0 mg/L Mn): 1.3
Count ufc/ml at +10° C. Count. J + 1 paracasei ou rhamnosus ([1]; 20 mg/L Mn): 3.20E+08 ufc/ml
paracasei ou rhamnosus count. num. Mn/count. J + 1 ([1]; 60 mg/L Mn vs 0 mg/L Mn): 1.3
Count ufc/ml at +10° C. Count. J + 1 paracasei ou rhamnosus ([1]; 60 mg/L Mn): 3.30E+08 ufc/ml
effect on the population of the bacteria of the L. casei group ([1]; Example 2, Lactobacillus casei ssp rhamnosus, 20, 60 mg/l manganese): selectively increases the population
effect on the acidification kinetics of the co-cultures ([2]; Example 2 co-cultures, 0.5, 20, 60 mg/l manganese): no effect
effect on the acidification kinetics of the co-cultures [2, 4]: no effect
paracasei ou rhamnosus count. num. Mn/count. J + 1 ([3]; 522 044 + 114 121, 20 mg/L Mn vs 0 mg/L Mn): 2.3
Count ufc/ml at +10° C. Count. J + 1 paracasei ou rhamnosus ([3]; 522 044 + 114 121, 20 mg/L Mn): 3.25E+08 ufc/ml
ratio count.Mn/count. J + 1 ([3]; 542 142 + 114 121): 1.9
ratio count.Mn/count. J + 3 ([3]; 542 142 + 114 121): 1.7
Count ufc/ml at +10° C. J + 1 ([3]; 542 142 + 114 121): 1.15E+08 ufc/ml
Count ufc/ml at +10° C. J + 3 ([3]; 542 142 + 114 121): 1.61E+08 ufc/ml
paracasei ou rhamnosus count. num. Mn/count. J + 1 ([3]; 543 043 + 114 121, 0.5 mg/L Mn vs 0 mg/L Mn): 2.2
Count ufc/ml at +10° C. Count. J + 1 paracasei ou rhamnosus ([3]; 543 043 + 114 121, 0.5 mg/L Mn): 2.99E+08 ufc/ml
paracasei ou rhamnosus count. num. Mn/count. J + 1 ([3]; 543 043 + 114 121, 20 mg/L Mn vs 0 mg/L Mn): 2.3
Count ufc/ml at +10° C. Count. J + 1 paracasei ou rhamnosus ([3]; 543 043 + 114 121, 20 mg/L Mn): 3.13E+08 ufc/ml
paracasei ou rhamnosus count. num. Mn/count. J + 1 ([3]; 543 043 + 114 121, 60 mg/L Mn vs 0 mg/L Mn): 2.4
Count ufc/ml at +10° C. Count. J + 1 paracasei ou rhamnosus ([3]; 543 043 + 114 121, 60 mg/L Mn): 3.25E+08 ufc/ml
ratio count.Mn/count. J + 1 ([3]; 543 043 + 114 121): 1.9
ratio count.Mn/count. J + 3 ([3]; 543 043 + 114 121): 2.1
Count ufc/ml at +10° C. J + 1 ([3]; 543 043 + 114 121): 2.70E+08 ufc/ml
Count ufc/ml at +10° C. J + 3 ([3]; 543 043 + 114 121): 3.00E+08 ufc/ml
effect on the population of the bacteria of the L. casei group ([3]; Example 2, Lactobacillus casei ssp paracasei, 0.5, 20, 60 mg/l manganese): selectively increases the population
effect on the population of Lactobacillus casei [3, 4]: selectively increases the population of Lactobacillus casei
